Assay results as given in publication PMC5484485, “In vitro and in vivo effects of kisspeptin antagonists p234, p271, p354, and p356 on GPR54 activation” (PLoS ONE, 2017).
Square brackets hold non-standard residues; d marks the D form. Ends that are not written are not given here.

Tests used:
[1] = system: plasma LH concentration; assay: Plasma LH in anestrous Beagle bitches during antagonist infusion and after cKP10 bolus; format: in vivo, dog; settings: n = 6
From the text: Thirteen adult anestrous Beagle bitches were used for this study. Six dogs with a median age of 89 months (range 43–122 months) were used as control group, receiving cKP10 without an antagonist. Eight dogs with a median age of 52 months (range 31–116 months) were used for the antagonist experiments. One dog was first used in the control group and 12 months later for the antagonist experiments. Of the eight dogs used for the antagonist experiments, four received p271, p354, and p356. In two of the eight dogs both p354 and p356 were tested, while in the remaining two dogs only p271 was tested, in order to test every antagonist in 6 dogs. The time between testing of different kisspeptin antagonists was at least 5 days (range 5–15 days) to ensure that there were no peptide residues. Kisspeptin antagonist p234 per se was not tested in vivo because p271 is in fact p234 with a penetratin tag to enhance passage across the blood-brain barrier, as has been described for use with peripheral administration.
Kisspeptin antagonists (50 μg/kg/h) were administered continuously for three hours via a catheter in the cephalic vein. Two hours after the start of the infusion, a single bolus of cKP10 (0.5 μg/kg) was administered intravenously. Blood samples were collected from the jugular vein by venipuncture at -40 min and 0 min before the antagonist infusion, and then every 30 min for two hours. After the administration of cKP10, blood samples were collected at 10, 20, 40, and 60 min (i.e., 130, 140, 160, and 180 min after the start of the antagonist infusion).
As a control, KP stimulation tests (without the administration of a kisspeptin antagonist) were performed in six dogs. Blood samples were collected from the jugular vein by venipuncture at -40 min and 0 min before, and then at 10, 20, 40, and 60 min after administration of cKP10 (0.5 μg/kg). Plasma LH concentrations were measured in all blood samples.
Plasma LH concentrations were measured with a heterologous radioimmunoassay validated for the dog, as described previously. The intra- and interassay CVs for values above 0.5 μg/l were 2.3 and 10.5%, respectively, and the limit of quantitation was 0.3 μg/l.
In both groups of dogs (experimental and control), the basal plasma LH concentration was calculated for each dog as the mean of the values at –40 and 0 min before cKP10 or antagonist administration. All LH values that exceeded the mean of all basal samples plus 3 SD were attributed to pulsatile secretion and were treated as outliers and excluded from statistical analysis. Log transformation of plasma LH concentrations was used because data were not normally distributed. A linear mixed model was used to analyze differences in plasma LH concentrations before and after KP10, with or without a kisspeptin antagonist (group effects: p271, p354, p356, and controls), with Bonferroni correction. P<0.05 was considered significant.

[2] = system: kisspeptin receptor; settings: ref unpublished data; cited from earlier work
Experimental: The following peptides were tested for antagonistic properties on the kisspeptin receptor: p234 ((D-Ala)-Asn-Trp-Asn-Gly-Phe-Gly-(D-Trp)-Arg-Phe-NH2), p271 (Arg-Arg-Met-Lys-Trp-Lys-Lys-Tyr-(D-Ala)-Asn-Trp-Asn-Gly-Phe-Gly-(D-Trp)-Arg-Phe-NH2), p354 ((D-Ala)-Tyr-Asn-Phe-Asn-Gly-Phe-Gly-(D-Trp)-Arg-Phe-NH2), and p356 ((D-Ala)-Tyr-Asn-Trp-Asn-Gly-Phe-Gly-(D-Trp)-Lys-Phe-NH2). Peptide 354 and p356 are next generation analogs refining p234.

[3] = biological target: T1, human GPR54 (Homo sapiens, UniProt Q969F8); assay: Flow cytometric calcium flux assay, response to peptide alone (agonist / intrinsic activity); format: cell-based; design: host or cells: rat hematopoietic CHEM1 cells expressing endogenous Galpha15
Experimental: In vitro analyses of the effects of kisspeptin and kisspeptin antagonists, were performed using HT[…] cells (rat hematopoietic CHEM1 cells expressing endogenous Gα15 and, stably expressing the human GPR54 receptor (Millipore BV, the Netherlands), CHEM1-GPR54. Cells were counted and suspended in HBSS+++ at a concentration of 5*10^6 cells/ml. To load the cells with the fluorescent dye ester they were incubated in HBSS+++ adjusted to a concentration of 2 μM Fluo-3 AM (Molecular Probes, Life Technologies, the Netherlands) for 1h at 37°C under agitation in the dark. After incubation, the cells were washed by adding HBSS+++ to a volume of 10 ml followed by centrifugation (5 min, 150 x g) to remove excess of Fluo-3AM. […] Thereafter the tube was removed briefly and 25 μl peptide (see below) was added, after which aspiration and analysis continued. For statistical analyses fluorescent data recorded during the time interval 30-60 seconds after initiation of measurement were used. […] Experiments were performed 3 times. Representative flow cytometry results are depicted in Fig 1. […] We then assessed whether these antagonists could compete with KP10 for its receptor. […] For this purpose 25 μl quantities of the antagonists were added to 200 μl of Fluo-3 AM labelled cells (10^6 cells/ml) and incubated for 15 min. […] Peptides p354 and p356 were tested three times with both human and canine KP10; while peptides p234 and p271 were tested three times with human KP10 and once with canine KP10. […] A multivariate general linear model was set up to analyze differences in calcium response between the different concentrations, with Dunnett's test as a post hoc procedure for the antagonists and Bonferroni's test for the agonists.

[4] = biological target: T1, human GPR54; assay: Flow cytometric calcium flux assay, KP10-induced response after 15 min pre-incubation with antagonist; format: cell-based; design: host or cells: rat hematopoietic CHEM1 cells expressing endogenous Galpha15; settings: 10^-5 M; 10^-8 M KP10; P<0.001; ascribed to intrinsic response, not antagonism
Experimental: In vitro analyses of the effects of kisspeptin and kisspeptin antagonists, were performed using HT[…] cells (rat hematopoietic CHEM1 cells expressing endogenous Gα15 and, stably expressing the human GPR54 receptor (Millipore BV, the Netherlands), CHEM1-GPR54. Cells were counted and suspended in HBSS+++ at a concentration of 5*10^6 cells/ml. To load the cells with the fluorescent dye ester they were incubated in HBSS+++ adjusted to a concentration of 2 μM Fluo-3 AM (Molecular Probes, Life Technologies, the Netherlands) for 1h at 37°C under agitation in the dark. After incubation, the cells were washed by adding HBSS+++ to a volume of 10 ml followed by centrifugation (5 min, 150 x g) to remove excess of Fluo-3AM. […] Thereafter the tube was removed briefly and 25 μl peptide (see below) was added, after which aspiration and analysis continued. For statistical analyses fluorescent data recorded during the time interval 30-60 seconds after initiation of measurement were used. […] We then assessed whether these antagonists could compete with KP10 for its receptor. […] For this purpose 25 μl quantities of the antagonists were added to 200 μl of Fluo-3 AM labelled cells (10^6 cells/ml) and incubated for 15 min. […] Peptides p354 and p356 were tested three times with both human and canine KP10; while peptides p234 and p271 were tested three times with human KP10 and once with canine KP10. To analyze the effects of different concentrations of the KP antagonists on the calcium response due to KP10 addition, the differences in fluorescence before and after KP10 were calculated (the calcium response). The calcium response ratios were calculated as the calcium response of the CHEM1-GPR54 cells pre-incubated with different concentrations of KP antagonist and the control (the calcium response of the cells without KP antagonist). These calcium response ratios were log transformed and used for further analysis by univariate analysis of variance, with the Dunnett's test as post hoc test. The calcium response ratios were set as dependent variables and the different concentrations of the antagonists and the two types of KP10 were used as fixed factors. The residuals were normally distributed.

[5] = antagonist 50 μg/kg/h iv, cKP10 0.5 μg/kg iv

T1 sequence (Q969F8 whole entry): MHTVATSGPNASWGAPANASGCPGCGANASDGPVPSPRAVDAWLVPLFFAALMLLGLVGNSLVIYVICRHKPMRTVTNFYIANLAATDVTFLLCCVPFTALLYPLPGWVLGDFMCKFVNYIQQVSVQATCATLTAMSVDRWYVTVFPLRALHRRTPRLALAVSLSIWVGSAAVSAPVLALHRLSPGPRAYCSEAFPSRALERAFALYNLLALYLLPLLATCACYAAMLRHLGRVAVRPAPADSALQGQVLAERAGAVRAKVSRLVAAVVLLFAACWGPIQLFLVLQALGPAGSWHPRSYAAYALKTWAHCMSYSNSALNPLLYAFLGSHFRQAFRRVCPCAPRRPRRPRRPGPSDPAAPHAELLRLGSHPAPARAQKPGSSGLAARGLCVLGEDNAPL

intrinsic calcium response at highest concentration ([3]; 10^-5 M, P = 0.001): clear calcium response
pharmacological character on CHEM1-GPR54 cells ([3]; authors' conclusion): partial agonist
calcium response ratio versus control at highest concentration [4]: smaller than the negative control
Substance: [dA]YNWNGFG[dW]KF-NH2 [p356]
Median (and range) plasma LH, t = 30 ([1]; 30 min of antagonist infusion 50 μg/kg/h iv): 4.1 (2.4–12.8) μg/L
Median (and range) plasma LH, t = 60 ([1]; 60 min of antagonist infusion 50 μg/kg/h iv): 3.9 (2.2–7.7) μg/L
Median (and range) plasma LH, t = 90 ([1]; 90 min of antagonist infusion 50 μg/kg/h iv): 4.5 (2.8–6.7) μg/L
Median (and range) plasma LH, t = 120 ([1]; 120 min of antagonist infusion 50 μg/kg/h iv, before cKP10): 4.9 (2.1–10.4) μg/L
median maximum increment in plasma LH concentration after cKP10 during antagonist administration [1, 5]: 8.1 µg/L
range of maximum increment in plasma LH concentration after cKP10 during antagonist administration [1, 5]: 6.3 to 18.3 µg/L
Median (and range) plasma LH, t = 130 / t = 10* ([1]; antagonist infusion 50 μg/kg/h iv, 10 min after cKP10 0.5 μg/kg iv): 12.8 (9.1–23.1) μg/L
Median (and range) plasma LH, t = 140 / t = 20* ([1]; antagonist infusion 50 μg/kg/h iv, 20 min after cKP10 0.5 μg/kg iv): 8.7 (7.1–13.4) μg/L
Median (and range) plasma LH, t = 180 / t = 60* ([1]; antagonist infusion 50 μg/kg/h iv, 60 min after cKP10 0.5 μg/kg iv): 4.7 (3.6–12.8) μg/L
Median (and range) plasma LH, Basal ([1]; before antagonist infusion (mean of -40 and 0 min per dog)): 4.3 (2.8–6.0) μg/L
effect on basal plasma LH concentration ([1]; continuous iv 50 μg/kg/h, anestrous bitches): did not cause significant alterations
binding and inhibition of kisspeptin action on inositol generation, potency range [2]: nanomolar range
